# Data published in patent US20220322673A1, “Novel Agrochemical Combinations” (UPL LIMITED, priority 2019, published 2022).
# Read-outs that look alike come from different tables or passages of the source.
# Experiments:
# Format in all cases: in vivo
# [1] = system: Corn FAW (Spodoptera frugiperda); details: for Percent control (%) A01: A01 = 1 day after first spray; for Percent control (%) A14: A14 = 14 days after 1st spray; for Percent control (%) B03: B03 = 3 days after 2nd spray; for Percent control (%) B07: B07 (after 2nd spray); for Percent control (%) B10: B10 (after 2nd spray); for Percent control (%) B21: B21 (after 2nd spray)
# Text: Application method: Two applications (application A and B) within an interval of 14 days. A01=1 day after first spray, A14=14 days after 1st spray, B03=3 days after 2nd spray.
# Okra Aphids = assay: Trials of Flonicamid and Orthosilicic acid on controlling Okra Aphids (Example 1); details: doses gm/ha: OSA + Flonicamid 625 + 50, Flonicamid 75, OSA 1250
# Experimental: Trials were conducted to test the efficacy of the combination of Flonicamid and Orthosilicic acid on controlling Okra Aphids at different dosages.
# Okra Mites = assay: Trials on controlling Okra Mites post 2nd and 3rd application (Example 2); details: doses gm/ha: OSA 625 + Flonicamid 50 / Acetamipirid 50 / Lancer Gold 650, solo OSA 1250, Flonicamid 75, Acetamipirid 50, Lancer gold 650
# Experimental: Trials were conducted to test the efficacy of the combination of Flonicamid and Orthosilicic acid on controlling Okra Mites at different dosages post 2nd and 3rd application.
# [2] = system: Okra Jassids (Amrasca bigutulla bigutulla); details: for Percent control (%) of Okra Jassids, Nymphs + Adults, A01: A01 = 1 day after first spray; for Percent control (%) of Okra Jassids, Nymphs + Adults, A10: A10 (after 1st spray); for Percent control (%) of Okra Jassids, Nymphs + Adults, B03: B03 = 3 days after 2nd spray; for Percent control (%) of Okra Jassids, Nymphs + Adults, B07: B07 (after 2nd spray); for Percent control (%) of Okra Jassids, Nymphs + Adults, B10: B10 (after 2nd spray); for Percent control (%) of Okra Jassids, Nymphs + Adults, B14: B14 (after 2nd spray); for Percent control (%) of Okra Jassids, Nymphs + Adults, C03: C03 = 3 days after third spray; for Percent control (%) of Okra Jassids, Nymphs + Adults, C10: C10 (after third spray)
# Text: (§1) In this evaluation, feeding damage & insect population on Okra Leaves before and after sprays is averaged and analyzed for the test of significance. Application method: Three applications (application A, B and C) within an interval of 14 days.
# [3] = system: Okra Aphids (Aphis gossypii); details: for Percent control (%) of Okra Aphids, Nymphs + Adults, A01: A01 = 1 day after first spray; for Percent control (%) of Okra Aphids, Nymphs + Adults, B03: B03 = 3 days after 2nd spray; for Percent control (%) of Okra Aphids, Nymphs + Adults, B07: B07 (after 2nd spray); for Percent control (%) of Okra Aphids, Nymphs + Adults, B10: B10 (after 2nd spray); for Percent control (%) of Okra Aphids, Nymphs + Adults, C03: C03 = 3 days after third spray; for Percent control (%) of Okra Aphids, Nymphs + Adults, C10: C10 (after third spray)
# Text: as §1
# [4] = 25% reduced dose of insecticide, gm a.i./ha: OSA 25, CTPR 22.5, Acephate 730, Novaluron 56, Novaluron+Lambda cyhalothrin 67.5, Novaluron+Emamectin 93.5
# [5] = doses gm a.i./ha: OSA 25, CTPR 30, Acephate 970, Novaluron 75, Novaluron+Lambda cyhalothrin 90, Novaluron+Emamectin 125
# [6] = 25% reduced dose rate, gm a.i./ha: OSA 25, Flonicamid 75, Acephate+Imidacloprid 390, Flonicamid+Fipronil 75+37.5, Imidacloprid 18.3, Acetamiprid 11.2
# [7] = doses gm a.i./ha: OSA 25, Flonicamid 100, Acephate+Imidacloprid 520, Flonicamid+Fipronil 100+50, Imidacloprid 24.5, Acetamiprid 15
# [8] = reduced insecticide dose, gm a.i./ha: OSA 25, Flonicamid (Ulala) 75, Acephate+Imidacloprid 390, Flonicamid+Fipronil 75+37.5, Imidacloprid 18.3, Acetamiprid 11.2
substance,measurement,setting,value
orthosilicic acid [OSA],Percent control (%) A01,[1]; [4],29.3%
same,Percent control (%) A01,[1]; [5],32.4%
same,Percent control (%) A14,[1]; [4],44.8%
same,Percent control (%) A14,[1]; [5],47.4%
same,Percent control (%) B03,[1]; [4],51.9%
same,Percent control (%) B03,[1]; [5],53.7%
same,Percent control (%) B07,[1]; [4],61.4%
same,Percent control (%) B07,[1]; [5],58.6%
same,Percent control (%) B10,[1]; [4],57.9%
same,Percent control (%) B10,[1]; [5],60.6%
same,Percent control (%) B21,[1]; [4],56.5%
same,Percent control (%) B21,[1]; [5],59.0%
same,Percent control B01,Okra Aphids; B01,29.6%
same,Percent control C-01,Okra Aphids; C-01,23.3%
same,Percent control C-10,Okra Aphids; C-10,26.7%
same,Percent control Mean,"Okra Aphids; Mean of B01, C-01, C-10",26.53%
same,Percent control B07,Okra Mites; B07,10%
same,Percent control C-01,Okra Mites; C-01,19.3%
same,Percent control C-10,Okra Mites; C-10,11.7%
same,Percent control Mean,"Okra Mites; Mean of B07, C-01, C-10",13.66%
same,"Percent control (%) of Okra Jassids, Nymphs + Adults, A01",[2]; [6],27.9%
same,"Percent control (%) of Okra Jassids, Nymphs + Adults, A01",[2]; [7],25.3%
same,"Percent control (%) of Okra Jassids, Nymphs + Adults, A10",[2]; [6],37%
same,"Percent control (%) of Okra Jassids, Nymphs + Adults, A10",[2]; [7],35.8%
same,"Percent control (%) of Okra Jassids, Nymphs + Adults, B03",[2]; [6],40.9%
same,"Percent control (%) of Okra Jassids, Nymphs + Adults, B03",[2]; [7],42.7%
same,"Percent control (%) of Okra Jassids, Nymphs + Adults, B07",[2]; [6],47.9%
same,"Percent control (%) of Okra Jassids, Nymphs + Adults, B07",[2]; [7],46.5%
same,"Percent control (%) of Okra Jassids, Nymphs + Adults, B10",[2]; [6],48.6%
same,"Percent control (%) of Okra Jassids, Nymphs + Adults, B10",[2]; [7],45.5%
same,"Percent control (%) of Okra Jassids, Nymphs + Adults, B14",[2]; [6],43%
same,"Percent control (%) of Okra Jassids, Nymphs + Adults, B14",[2]; [7],44.7%
same,"Percent control (%) of Okra Jassids, Nymphs + Adults, C03",[2]; [6],45.5%
same,"Percent control (%) of Okra Jassids, Nymphs + Adults, C03",[2]; [7],46.9%
same,"Percent control (%) of Okra Jassids, Nymphs + Adults, C10",[2]; [6],49.1%
same,"Percent control (%) of Okra Jassids, Nymphs + Adults, C10",[2]; [7],48.6%
same,"Percent control (%) of Okra Aphids, Nymphs + Adults, A01",[3]; [7],32.3%
same,"Percent control (%) of Okra Aphids, Nymphs + Adults, A01",[3]; [8],30.2%
same,"Percent control (%) of Okra Aphids, Nymphs + Adults, A10","[3]; A10 (after 1st spray), doses gm a.i./ha: OSA 25, Flonicamid 100, Acephate+Imidacloprid 520, Flonicamid+Fipronil 100+50, Imidacloprid 24.5, Acetamiprid 15",48.5%
same,"Percent control (%) of Okra Aphids, Nymphs + Adults, A14","[3]; A14 = 14 days after 1st spray, reduced insecticide dose, gm a.i./ha: OSA 25, Flonicamid (Ulala) 75, Acephate+Imidacloprid 390, Flonicamid+Fipronil 75+37.5, Imidacloprid 18.3, Acetamiprid 11.2",47%
same,"Percent control (%) of Okra Aphids, Nymphs + Adults, B03",[3]; [7],52%
same,"Percent control (%) of Okra Aphids, Nymphs + Adults, B03",[3]; [8],55%
same,"Percent control (%) of Okra Aphids, Nymphs + Adults, B07",[3]; [7],56%
same,"Percent control (%) of Okra Aphids, Nymphs + Adults, B07",[3]; [8],57.7%
same,"Percent control (%) of Okra Aphids, Nymphs + Adults, B10",[3]; [7],56.1%
same,"Percent control (%) of Okra Aphids, Nymphs + Adults, B10",[3]; [8],55.7%
same,"Percent control (%) of Okra Aphids, Nymphs + Adults, C03",[3]; [7],57%
same,"Percent control (%) of Okra Aphids, Nymphs + Adults, C03",[3]; [8],59.4%
same,"Percent control (%) of Okra Aphids, Nymphs + Adults, C10",[3]; [7],59.7%
same,"Percent control (%) of Okra Aphids, Nymphs + Adults, C10",[3]; [8],60.3%
